Results published in US11649255B2, “Indazoles as hematopoietic progenitor kinase 1 (HPK1) inhibitors and methods using same” (1st Biotherapeutics, Inc., priority 2020, dated 2023).
pEC50, pIC50: −log10 of the molar value. Read-outs that look alike come from different tables or passages of the source.

Tests used:
recombinant human HPK1 = recombinant human HPK1 (Homo sapiens (Human), UniProt Q92918); test: HPK1 kinase assay (ADP-Glo); format: biochemical; settings: 25 μM ATP, MBP substrate
Procedure, shortened: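 Activity was read as ADP formed, detected by ADP-Glo luminescence after the reaction of 5 ng recombinant human HPK1 with MBP and ATP (stocks 0.5 μg/μl and 25 μM) for 40 min at 30 °C. Buffer was Tris pH 7.5 with MgCl2, BSA and DTT, with compound in 0.5% DMSO. IC50 came from inhibition curves.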

[1] = system: human peripheral blood pan T cells; test: IFNγ and IL-2 analysis of human peripheral pan T cells; format: cell-based; settings: T-cell, CD3/CD28 bead stimulation, 100 nM Prostaglandin E2, 24 hr
Procedure, shortened: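 Human peripheral blood pan T cells (8×10^4) were preincubated 1 h with compounds plus 100 nM PGE2. They were then activated with anti-CD3/CD28 Dynabeads at a 1:3 cell:bead ratio. IFNγ and IL-2 were measured on a Meso Scale Discovery platform.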

[2] = IFNγ secretion, read-out: IFNγ (EC50)
[3] = IL-2 secretion, read-out: IL-2 (EC50)

Chain of recombinant human HPK1 (Q92918 whole entry): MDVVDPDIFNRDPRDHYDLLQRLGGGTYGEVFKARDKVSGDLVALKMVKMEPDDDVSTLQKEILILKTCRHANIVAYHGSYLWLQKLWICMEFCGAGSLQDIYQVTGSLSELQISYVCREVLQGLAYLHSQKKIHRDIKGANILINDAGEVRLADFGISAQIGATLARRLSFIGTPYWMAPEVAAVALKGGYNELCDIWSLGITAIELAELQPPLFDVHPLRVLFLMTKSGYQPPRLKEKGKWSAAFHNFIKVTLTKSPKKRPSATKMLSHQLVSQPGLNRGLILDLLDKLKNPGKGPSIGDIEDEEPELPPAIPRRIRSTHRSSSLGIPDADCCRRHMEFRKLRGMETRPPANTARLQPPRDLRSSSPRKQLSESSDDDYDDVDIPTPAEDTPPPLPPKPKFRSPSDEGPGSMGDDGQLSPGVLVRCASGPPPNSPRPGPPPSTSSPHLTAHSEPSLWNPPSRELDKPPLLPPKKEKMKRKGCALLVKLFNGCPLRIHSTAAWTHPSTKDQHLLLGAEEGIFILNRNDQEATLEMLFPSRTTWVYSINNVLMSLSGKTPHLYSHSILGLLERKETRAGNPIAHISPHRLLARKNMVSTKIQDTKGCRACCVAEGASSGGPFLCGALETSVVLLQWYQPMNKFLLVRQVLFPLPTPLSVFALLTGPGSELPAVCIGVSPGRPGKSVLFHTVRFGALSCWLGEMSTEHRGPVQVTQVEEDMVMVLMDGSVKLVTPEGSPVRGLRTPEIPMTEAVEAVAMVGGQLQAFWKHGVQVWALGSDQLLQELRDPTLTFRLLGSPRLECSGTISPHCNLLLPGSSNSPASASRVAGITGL

pIC50 (recombinant human HPK1)	pEC50 [1, 2]	pEC50 [1, 3]	SMILES
> 7.00	> 6.70	6.00 to 6.70	Cc1c(F)c(C(=O)N(C)C)c2[nH]ncc2c1-c1ccn2nc(NC(=O)[C@@H]3C[C@@H]3F)cc2c1 [Example 570, 6-fluoro-4-(2-((1S,2S)-2-fluorocyclopropane-1-carboxamido)pyrazolo[1,5-a]pyridin-5-yl)-N,N,5-trimethyl-1H-indazole-7-carboxamide]
> 7.00	6.00 to 6.70	6.00 to 6.70	CCN(C)c1c(F)c(C)c(-c2ccn3nc(NC(=O)[C@@H]4C[C@@H]4F)cc3c2)c2cn[nH]c12 [Example 563, (1S,2S)-N-(5-(7-(ethyl(methyl)amino)-6-fluoro-5-methyl-1H-indazol-4-yl)pyrazolo[1,5-a]pyridin-2-yl)-2-fluorocyclopropane-1-carboxamide]
> 7.00	> 6.70	6.00 to 6.70	Cc1c(F)c(N(C)CCO)c2[nH]ncc2c1-c1ccn2nc(NC(=O)[C@@H]3C[C@@H]3F)cc2c1 [Example 557, (1S,2S)-2-fluoro-N-(5-(6-fluoro-7-((2-hydroxyethyl)(methyl)amino)-5-methyl-1H-indazol-4-yl)pyrazolo[1,5-a]pyridin-2-yl)cyclopropane-1-carboxamide]
> 7.00	6.00 to 6.70	6.00 to 6.70	CSc1c(F)cc2[nH]ncc2c1-c1ccn2nc(NC(=O)[C@@H]3C[C@@H]3F)cc2c1 [Example 530, (1S,2S)-2-fluoro-N-(5-(6-fluoro-5-(methylthio)-1H-indazol-4-yl)pyrazolo[1,5-a]pyridin-2-yl)cyclopropane-1-carboxamide]
> 7.00	6.00 to 6.70	6.00 to 6.70	CN(c1c(F)c(Cl)c(-c2ccn3nc(NC(=O)[C@@H]4C[C@@H]4F)cc3c2)c2cn[nH]c12)C1CC(O)C1 (stereo partly drawn) [Example 561, (1S,2S)-N-(5-(5-chloro-6-fluoro-7-((3-hydroxycyclobutyl)(methyl)amino)-1H-indazol-4-yl)pyrazolo[1,5-a]pyridin-2-yl)-2-fluorocyclopropane-1-carboxamide]
> 7.00	> 6.70	–	CCc1c(F)c(SC)c2[nH]ncc2c1-c1ccc2nc(NC(=O)[C@@H]3C[C@@H]3F)cn2c1 [Example 293, (1S,2S)-N-(6-(5-ethyl-6-fluoro-7-(methylthio)-1H-indazol-4-yl)imidazo[1,2-a]pyridin-2-yl)-2-fluorocyclopropane-1-carboxamide]
> 7.00	6.00 to 6.70	–	O=C(Nc1cc2cc(-c3c(Cl)c(F)c(SCCO)c4[nH]ncc34)ccn2n1)[C@@H]1C[C@@H]1F [Example 520, (1S,2S)-N-(5-(5-chloro-6-fluoro-7-((2-hydroxyethyl)thio)-1H-indazol-4-yl)pyrazolo[1,5-a]pyridin-2-yl)-2-fluorocyclopropane-1-carboxamide]

Second part, the molecule before the results:

SMILES	pIC50 (recombinant human HPK1)	pEC50 [1, 2]	pEC50 [1, 3]
CCOc1c(F)c(CC)c(-c2ccc3nc(NC(=O)[C@@H]4C[C@@H]4F)sc3c2)c2cn[nH]c12 [Example 107, (1S,2S)-N-(6-(7-ethoxy-5-ethyl-6-fluoro-1H-indazol-4-yl)benzo[d]thiazol-2-yl)-2-fluorocyclopropane-1-carboxamide]	> 7.00	6.00 to 6.70	–
CCc1c(F)cc2[nH]ncc2c1-c1ccc2nc(NC(=O)[C@@H]3C[C@@H]3F)sc2n1 [Example 152, (1S,2S)—N-(5-(5-ethyl-6-fluoro-1H-indazol-4-yl)thiazolo[5,4-b]pyridin-2-yl)-2-fluorocyclopropane-1-carboxamide]	> 7.00	6.00 to 6.70	6.00 to 6.70
CCc1c(F)c(SC)c2[nH]ncc2c1-c1ccc2nc(NC(=O)[C@@H]3C[C@@H]3F)sc2n1 [Example 162, (1S,2S)-N-(5-(5-ethyl-6-fluoro-7-(methylthio)-1H-indazol-4-yl)thiazolo[5,4-b]pyridin-2-yl)-2-fluorocyclopropane-1-carboxamide]	> 7.00	6.00 to 6.70	–
CN(C)C(=O)c1c(F)c(Cl)c(-c2ccc3nc(NC(=O)[C@@H]4C[C@@H]4F)sc3n2)c2cn[nH]c12 [Example 193, 5-chloro-6-fluoro-4-(2-((1S,2S)-2-fluorocyclopropane-1-carboxamido)thiazolo[5,4-b]pyridin-5-yl)-N,N-dimethyl-1H-indazole-7-carboxamide]	> 7.00	6.00 to 6.70	< 6.00
CCc1c(F)c(N(C)C)c2[nH]ncc2c1-c1ccc2nc(NC(=O)[C@@H]3C[C@@H]3F)sc2n1 [Example 161, (1S,2S)-N-(5-(7-(dimethylamino)-5-ethyl-6-fluoro-1H-indazol-4-yl)thiazolo[5,4-b]pyridin-2-yl)-2-fluorocyclopropane-1-carboxamide]	> 7.00	6.00 to 6.70	–
CSc1c(F)c(N(C)C)c2[nH]ncc2c1-c1ccc2nc(NC(=O)[C@@H]3C[C@@H]3F)sc2c1 [Example 110, (1S,2S)-N-(6-(7-(dimethylamino)-6-fluoro-5-(methylthio)-1H-indazol-4-yl)benzo[d]thiazol-2-yl)-2-fluorocyclopropane-1-carboxamide]	> 7.00	> 6.70	–
CCOc1c(F)c(SC)c(-c2ccc3nc(NC(=O)[C@@H]4C[C@@H]4F)sc3n2)c2cn[nH]c12 [Example 184, (1S,2S)-N-(5-(7-ethoxy-6-fluoro-5-(methylthio)-1H-indazol-4-yl)thiazolo[5,4-b]pyridin-2-yl)-2-fluorocyclopropane-1-carboxamide]	> 7.00	> 6.70	–
CSc1c(F)c(N(C)C)c2[nH]ncc2c1-c1ccc2nc(NC(=O)[C@@H]3C[C@@H]3F)sc2n1 [Example 194, (1S,2S)-N-(5-(7-(dimethylamino)-6-fluoro-5-(methylthio)-1H-indazol-4-yl)thiazolo[5,4-b]pyridin-2-yl)-2-fluorocyclopropane-1-carboxamide]	> 7.00	6.00 to 6.70	–
CSc1c(F)cc2[nH]ncc2c1-c1ccc2nc(NC(=O)[C@@H]3C[C@@H]3F)sc2n1 [Example 156, (1S,2S)-2-fluoro-N-(5-(6-fluoro-5-(methylthio)-1H-indazol-4-yl)thiazolo[5,4-b]pyridin-2-yl)cyclopropane-1-carboxamide]	> 7.00	6.00 to 6.70	6.00 to 6.70
